According to patent publication US20130253027A1, “DOSAGES OF ARYLSULFONAMIDE DERIVATIVES” (FOVEA PHARMACEUTICALS, priority 2010, published 2013):
Values joined by “and” are separate entries in the source; they are usually repeats but may differ in a detail not shown here. Identical values can stand only once.

Key:
[1] = tested on: mRNA of cytokines, vasoactive mediators and growth factors in retina; test: Expression of mRNA of cytokines, vasoactive mediators and growth factors in retina of diabetic Wistar rats; assay type: in vivo, rat; details: 1% eye drops for 7 days, phosphate salt
Source text: Expression of mRNA of B1R, B2R, i-NOS, e-NOS, COX-2, ICAM-1, VEGF-R2, VEGF-a, IL-1β and HIF-1α was increased in diabetic rat retina compared to control by 7.5-fold (P<0.05), 5.5, 15- (P<0.01), 6.5- , 8- (P<0.05), 8- , 5- (P<0.05), 12-, 6.5- (P<0.01) and 7-fold (P<0.05), respectively. Expression of TNF-α mRNA remained unchanged.

[2] = tested on: mRNA of cytokines, vasoactive mediators and growth factors in retina; test: as above; assay type: in vivo, rat; details: 1% eye drops for 7 days, phosphate salt; remark: listed apart in the source
[3] = Ocular distribution study in albino and pigmented rabbits (14C-compound, single ocular administration); assay type: in vivo, rabbit
Source text: Further, an ocular distribution study in albino and pigmented rabbits has been performed.

[4] = tested on: leukocyte adhesion to the retinal vasculature; test: Leukocyte adhesion to the retinal vasculature of streptozotocin-diabetic Wistar rats; assay type: in vivo, rat; details: phosphate salt, 1% eye drop twice-a-day for 7 days; P<0.05
[5] = tested on: streptozotocin-diabetic Brown-Norway rats; test: Retinal vascular leakage (Evans Blue dye) after eye drops in streptozotocin-diabetic Brown-Norway rats; assay type: in vivo, rat
Source text: Administration of streptozotocin to rodents produces a massive destruction of pancreatic β-cells, and thus, triggers marked elevation of glycemia and development of a diabetic state which, in part, mimics early stages of type 1 diabetes. In this regard, streptozotocin-treated rats develop an inflammatory retinopathy featured by rupture of the blood-retinal barrier, increase of inflammatory mediators, cytokines and growth factors (VEGF, basic fibroblast growth factor), microglial cell activation and leukostasis.
Male Brown-Norway or Wistar rats were made diabetic by […] of 65 mg/kg intraperitoneal streptozotocin. Rats with a glycemia<350 mg/dl were discarded from the study. […] On day 15, retinal vascular leakage was determined by measurement of retinal content of Evans Blue dye.
Recombinant tissue kallikrein binding protein (rKBP) was used as a reference drug and was given intravitreally 48 hours before vascular leakage measurement. Values are means ±standard error mean of 12 eyes/group (6 rats). *** means that P<0.001 in a Student's t-test.
The route by which the phosphate salt of compound n° 49 reaches the retina following topical instillation was investigated to determine whether it is mainly by systemic circulation or by the trans- and/or peri-ocular pathway.

[6] = tested on: STZ diabetic Brown-Norway rats; details: intravitreal route, positive reference drug; cited from earlier work
[7] = single ocular 30 μl of 2% (base equivalent) 14C formulation

Cmax in plasma ([3]; albino and pigmented rabbits (similar profiles), single ocular 30 μl of 2%) [ng/mL] | AUC 0-48 in aqueous, retina, choroids, whole blood and plasma, pigmented rabbit higher than albino [3, 7] | Cmax, pigmented rabbit lower than albino [3, 7] | t½ in vitreous, retina and choroids, pigmented rabbit higher than albino [3, 7] | Molecule | mRNA expression of B1R in retina [1] | mRNA expression of B2R in retina [1] | mRNA expression of COX-2 in retina [1] | mRNA expression of HIF-1α in retina [1] | mRNA expression of ICAM-1 in retina [1] | mRNA expression of VEGF-A in retina (first mention in list) [1] | mRNA expression of e-NOS in retina [1] | mRNA expression of i-NOS in retina [1] | reduction of expression of VEGF-A mRNA in retina [1] [%] | mRNA expression of IL-1α in retina [2] | leukostasis (number of leukocytes in retinal vessels) [4] | reduction of retinal edema, maximum ([5]; 1% eye drops, two separate preliminary studies (data not shown)) | reduction of retinal vascular permeability, treated eye ([5]; 3% phosphate salt in a single eye for 7 days) [%] | reduction of retinal oedema, maximum ([5]; phosphate salt, eye drop (10 μl) 0.1-3% twice daily for 7 days, dose-dependent) [%] | activity of phosphate salt form compared to fumarate salt ([5]; test not specified) | reduction of retinal vascular leakage [6]
88 | at least 2 fold | at least 2 fold | at least 2 fold | COc1cc(C)c(S(=O)(=O)N(C)CCOCC(=O)N(C)Cc2ccc(C3=NCCN3)cc2)c(C)c1 [compound n° 49] | down-regulated to control level | down-regulated to control level | down-regulated to control level | down-regulated to control level | down-regulated to control level | down-regulated to control level | down-regulated to control level | down-regulated to control level | 50 | down-regulated to control level | significantly blunted | 58% and 63% | 37 | 55 | equivalent activity | 
 |  |  |  | rKBP: Recombinant tissue kallikrein binding protein, reference drug given intravitreally (protein, UniProt P29622 21-427, looked up) Kallistatin: QLHVEHDGESCSNSSHQQILETGEGSPSLKIAPANADFAFRFYYLIASETPGKNIFFSPLSISAAYAMLSLGACSHSRSQILEGLGFNLTELSESDVHRGFQHLLHTLNLPGHGLETRVGSALFLSHNLKFLAKFLNDTMAVYEAKLFHTNFYDTVGTIQLINDHVKKETRGKIVDLVSELKKDVLMVLVNYIYFKALWEKPFISSRTTPKDFYVDENTTVRVPMMLQDQEHHWYLHDRYLPCSVLRMDYKGDATVFFILPNQGKMREIEEVLTPEMLMRWNNLLRKRNFYKKLELHLPKFSISGSYVLDQILPRLGFTDLFSKWADLSGITKQQKLEASKSFHKATLDVDEAGTEAAAATSFAIKFFSAQTNRHILRFNRPFLVVIFSTSTQSVLFLGKVVDPTKP |  |  |  |  |  |  |  |  |  |  |  |  |  |  |  | approximately 50%
